Data from the supplement of paper PMC10307832.

Columns and labels:
Assay in all cases: relative viability (nuclei count vs DMSO), 5 days (fraction); higher = more cells survive
[1] = test system: HCC-15
In short: (§1)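 Relative viability is defined as nuclei in treated wells over nuclei in vehicle wells. Duplicate plates were run and medians reported. Lung cancer cell lines in 1536-well plates were dosed by pin tool one day after seeding, with one drug or with a fixed anchor-drug dose plus five library-drug doses (not always all listed) in √10 steps, and nuclei were counted after 5 days.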

[2] = test system: NCI-H596
In short: as §1

[3] = test system: NCI-H2009
In short: as §1

[4] = test system: NCI-H2023
In short: as §1

[5] = test system: NCI-H2405
In short: as §1

[6] = test system: NCI-H1975
In short: as §1

[7] = test system: A-427
In short: as §1

[8] = test system: SK-LU-1
In short: as §1

[9] = test system: LXF-289
In short: as §1

[10] = test system: HCC-366
In short: as §1

[11] = test system: NCI-H1437
In short: as §1

[12] = test system: UMC-11
In short: as §1

[13] = test system: NCI-H1915
In short: as §1

[14] = test system: NCI-H3122
In short: as §1

[15] = test system: NCI-H460
In short: as §1

[16] = test system: NCI-H650
In short: as §1

[17] = test system: PC-14
In short: as §1

[18] = test system: H3255
In short: as §1

[19] = test system: PC-3 [JPC-3]
In short: as §1

[20] = test system: NCI-H441
In short: as §1

[21] = test system: HARA
In short: as §1

[22] = test system: NCI-H1755
In short: as §1

[23] = test system: NCI-H1793
In short: as §1

O=C(O)CCCCC(CCSCc1ccccc1)SCc1ccccc1 (stereo not drawn) [CPI-613] + N=C(N)NC(=N)NCCc1ccccc1 [Phenformin] (partner 250 µM)
relative viability ([1]; first compound 5 µM): 0.435
relative viability ([1]; first compound 15.81 µM): 0.439
relative viability ([1]; first compound 50 µM): 0.414
relative viability ([1]; first compound 158.11 µM): 0.178
relative viability ([1]; first compound 500 µM): 0.0244
relative viability ([2]; first compound 5 µM): 0.64
relative viability ([2]; first compound 15.81 µM): 0.672
relative viability ([2]; first compound 50 µM): 0.812
relative viability ([2]; first compound 158.11 µM): 0.668
relative viability ([2]; first compound 500 µM): 0.0197
relative viability ([3]; first compound 5 µM): 0.478
relative viability ([3]; first compound 15.81 µM): 0.443
relative viability ([3]; first compound 50 µM): 0.42
relative viability ([3]; first compound 158.11 µM): 0.0548
relative viability ([3]; first compound 500 µM): 0.0187
relative viability ([4]; first compound 5 µM): 0.399
relative viability ([4]; first compound 15.81 µM): 0.37
relative viability ([4]; first compound 50 µM): 0.36
relative viability ([4]; first compound 158.11 µM): 0.0556
relative viability ([4]; first compound 500 µM): 0.0073
relative viability ([5]; first compound 5 µM): 0.394
relative viability ([5]; first compound 15.81 µM): 0.367
relative viability ([5]; first compound 50 µM): 0.392
relative viability ([5]; first compound 158.11 µM): 0.396
relative viability ([5]; first compound 500 µM): 0.371
relative viability ([6]; first compound 5 µM): 0.397
relative viability ([6]; first compound 15.81 µM): 0.404
relative viability ([6]; first compound 50 µM): 0.388
relative viability ([6]; first compound 158.11 µM): 0.291
relative viability ([6]; first compound 500 µM): 0.0692
relative viability ([7]; first compound 5 µM): 0.279
relative viability ([7]; first compound 15.81 µM): 0.255
relative viability ([7]; first compound 50 µM): 0.267
relative viability ([7]; first compound 158.11 µM): 0.178
relative viability ([7]; first compound 500 µM): 0.1
relative viability ([8]; first compound 5 µM): 0.547
relative viability ([8]; first compound 15.81 µM): 0.479
relative viability ([8]; first compound 50 µM): 0.642
relative viability ([8]; first compound 158.11 µM): 0.248
relative viability ([8]; first compound 500 µM): 0.0581
relative viability ([9]; first compound 5 µM): 0.516
relative viability ([9]; first compound 15.81 µM): 0.504
relative viability ([9]; first compound 50 µM): 0.511
relative viability ([9]; first compound 158.11 µM): 0.443
relative viability ([9]; first compound 500 µM): 0.0481
relative viability ([10]; first compound 5 µM): 0.554
relative viability ([10]; first compound 15.81 µM): 0.567
relative viability ([10]; first compound 50 µM): 0.651
relative viability ([10]; first compound 158.11 µM): 0.239
relative viability ([10]; first compound 500 µM): 0.0045
relative viability ([11]; first compound 5 µM): 0.237
relative viability ([11]; first compound 15.81 µM): 0.282
relative viability ([11]; first compound 50 µM): 0.287
relative viability ([11]; first compound 158.11 µM): 0.119
relative viability ([11]; first compound 500 µM): 0.0327
relative viability ([12]; first compound 5 µM): 0.274
relative viability ([12]; first compound 15.81 µM): 0.297
relative viability ([12]; first compound 50 µM): 0.289
relative viability ([12]; first compound 158.11 µM): 0.124
relative viability ([12]; first compound 500 µM): 0.117
relative viability ([13]; first compound 5 µM): 0.374
relative viability ([13]; first compound 15.81 µM): 0.372
relative viability ([13]; first compound 50 µM): 0.354
relative viability ([13]; first compound 158.11 µM): 0.339
relative viability ([13]; first compound 500 µM): 0.0398
relative viability ([14]; first compound 5 µM): 0.387
relative viability ([14]; first compound 15.81 µM): 0.364
relative viability ([14]; first compound 50 µM): 0.339
relative viability ([14]; first compound 158.11 µM): 0.17
relative viability ([14]; first compound 500 µM): 0.0221
relative viability ([15]; first compound 5 µM): 0.521
relative viability ([15]; first compound 15.81 µM): 0.449
relative viability ([15]; first compound 50 µM): 0.434
relative viability ([15]; first compound 158.11 µM): 0.115
relative viability ([15]; first compound 500 µM): 0.0156
relative viability ([16]; first compound 5 µM): 0.508
relative viability ([16]; first compound 15.81 µM): 0.412
relative viability ([16]; first compound 50 µM): 0.448
relative viability ([16]; first compound 158.11 µM): 0.371
relative viability ([16]; first compound 500 µM): 0.333
relative viability ([17]; first compound 5 µM): 0.463
relative viability ([17]; first compound 15.81 µM): 0.458
relative viability ([17]; first compound 50 µM): 0.567
relative viability ([17]; first compound 158.11 µM): 0.386
relative viability ([17]; first compound 500 µM): 0.207
relative viability ([18]; first compound 5 µM): 0.351
relative viability ([18]; first compound 15.81 µM): 0.299
relative viability ([18]; first compound 50 µM): 0.399
relative viability ([18]; first compound 500 µM): 0.299
relative viability ([19]; first compound 5 µM): 0.474
relative viability ([19]; first compound 15.81 µM): 0.495
relative viability ([19]; first compound 50 µM): 0.494
relative viability ([19]; first compound 158.11 µM): 0.465
relative viability ([19]; first compound 500 µM): 0.0769
relative viability ([20]; first compound 5 µM): 0.885
relative viability ([20]; first compound 15.81 µM): 0.734
relative viability ([20]; first compound 50 µM): 0.79
relative viability ([20]; first compound 158.11 µM): 0.284
relative viability ([20]; first compound 500 µM): 0.0276
relative viability ([21]; first compound 15.81 µM): 0.394
relative viability ([21]; first compound 50 µM): 0.444
relative viability ([21]; first compound 158.11 µM): 0.267
relative viability ([21]; first compound 500 µM): 0.0155
relative viability ([22]; first compound 5 µM): 0.608
relative viability ([22]; first compound 15.81 µM): 0.642
relative viability ([22]; first compound 50 µM): 0.558
relative viability ([22]; first compound 158.11 µM): 0.533
relative viability ([22]; first compound 500 µM): 0.183
relative viability ([23]; first compound 5 µM): 0.314
relative viability ([23]; first compound 15.81 µM): 0.319
relative viability ([23]; first compound 50 µM): 0.45
relative viability ([23]; first compound 158.11 µM): 0.194
relative viability ([23]; first compound 500 µM): 0.0229
